From US12011444B2, “N-substituted indole derivatives as PGE2 receptor modulators” (Idorsia Pharmaceuticals Ltd, priority 2015, dated 2024)

Assays:
PTRGER4 (EP4) = PTRGER4 (EP4) (Homo sapiens (Human), UniProt P35408); test: hEP4 b-arrestin assay (PathHunter HEK 293 PTGER4 b-arrestin cells); assay type: cell-based; conditions: antagonistic activity on hEP4; mean where measured multiple times
Method in brief: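 Stably transfected HEK293 cells carrying EP4–ProLink and β-arrestin 2–EA (β-gal fragment complementation), pre-incubated with compound 15 min at 37 °C, then stimulated with PGE2 (20 nM final) for 120 min at 37 °C. Chemiluminescence read after 1 h detection reagent at room temperature; activity per concentration expressed as percent of DMSO control.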

PTGER2 (EP2) = PTGER2 (EP2) (Homo sapiens (Human), UniProt P43116); test: hEP2 b-arrestin assay (PathHunter HEK 293 PTGER2 b-arrestin cells); assay type: cell-based; conditions: antagonistic activity on hEP2; mean where measured multiple times
Method in brief: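 HEK293 cells expressing ProLink-tagged EP2 and EA-fused β-arrestin 2 (enzyme fragment complementation) were seeded 24 h, pre-incubated with compound 15 min at 37 °C, then stimulated with 5 μM PGE2 (final) for 120 min.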

PTGER2 (EP2), sequence (P43116 whole entry, the tested form may be a part): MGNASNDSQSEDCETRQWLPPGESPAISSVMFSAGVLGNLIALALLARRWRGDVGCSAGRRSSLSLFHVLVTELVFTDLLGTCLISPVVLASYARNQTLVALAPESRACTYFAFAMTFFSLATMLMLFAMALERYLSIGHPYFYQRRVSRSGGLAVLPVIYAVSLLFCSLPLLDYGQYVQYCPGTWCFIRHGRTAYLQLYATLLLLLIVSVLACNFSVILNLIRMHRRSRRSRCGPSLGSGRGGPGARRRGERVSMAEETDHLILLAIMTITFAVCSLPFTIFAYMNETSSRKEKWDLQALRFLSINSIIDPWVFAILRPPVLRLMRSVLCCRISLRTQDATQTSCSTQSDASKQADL
PTRGER4 (EP4), sequence (P35408 whole entry, looked up, the tested form may be a part): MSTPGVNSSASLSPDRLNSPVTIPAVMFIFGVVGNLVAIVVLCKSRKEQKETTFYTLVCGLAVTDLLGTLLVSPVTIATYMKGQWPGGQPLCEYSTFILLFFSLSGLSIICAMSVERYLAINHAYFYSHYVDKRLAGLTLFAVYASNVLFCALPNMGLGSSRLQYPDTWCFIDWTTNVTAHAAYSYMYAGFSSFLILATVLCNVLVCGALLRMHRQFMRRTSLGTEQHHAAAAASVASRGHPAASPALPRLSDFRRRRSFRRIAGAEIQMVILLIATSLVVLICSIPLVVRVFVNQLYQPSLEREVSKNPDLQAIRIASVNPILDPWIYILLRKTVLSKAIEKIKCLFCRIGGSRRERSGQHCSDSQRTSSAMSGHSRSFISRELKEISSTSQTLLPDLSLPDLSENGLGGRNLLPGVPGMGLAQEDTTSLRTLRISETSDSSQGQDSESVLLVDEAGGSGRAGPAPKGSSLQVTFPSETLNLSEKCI

| SMILES | IC50 (PTRGER4 (EP4)) [nM] | IC50 (PTGER2 (EP2)) [nM] |
| --- | --- | --- |
| CC(C)Cc1cc(-c2cc(NCCn3c(C#N)cc4ccccc43)ncn2)ccc1C(=O)O [compound 165, 4-{6-[2-(2-Cyano-indol-1-yl)-ethylamino]-pyrimidin-4-yl}-2-isobutyl-benzoic acid] | 230 | 19 |
| CCNc1cc(-c2cc(NCCn3c(C)cc4cc(F)cc(F)c43)ncn2)ccc1C(=O)O [compound 167, 4-{6-[2-(5,7-Difluoro-2-methyl-indol-1-yl)-ethylamino]-pyrimidin-4-yl}-2-ethylamino-benzoic acid] | 333 | 6 |
| Cc1ccc(F)c2c1cc(C)n2CCNc1cc(-c2ccc(C(=O)NCCO)cc2)ncn1 [compound 168] | 995 | 146 |
| CCNc1cc(-c2cc(NCCn3c(C)cc4ccc(OC)cc43)ncn2)ccc1C(=O)O [compound 170, 2-Ethylamino-4-{6-[2-(6-methoxy-2-methyl-indol-1-yl)-ethylamino]-pyrimidin-4-yl}-benzoic acid] | 350 | 1 |
| COc1cccc2c1cc(C)n2CCNc1cc(-c2ccc(C(=O)O)c(C3CC3)c2)ncn1 [compound 175, 2-Cyclopropyl-4-{6-[2-(4-methoxy-2-methyl-indol-1-yl)-ethylamino]-pyrimidin-4-yl}-benzoic acid] | 529 | 6 |
| COc1cccc2c1cc(C)n2CCNc1cc(-c2ccc(-c3noc(C)n3)cc2)ncn1 [compound 179, [2-(4-Methoxy-2-methyl-indol-1-yl)-ethyl]-{6-[4-(5-methyl-[1,2,4]oxadiazol-3-yl)-phenyl]-pyrimidin-4-yl}-amine] | 880 | 20 |
| COc1cc(F)cc2c1cc(C)n2CCNc1cc(-c2ccc(-c3ncno3)cc2)ncn1 [compound 184, [2-(6-Fluoro-4-methoxy-2-methyl-indol-1-yl)-ethyl]-[6-(4-[1,2,4]oxadiazol-5-yl-phenyl)-pyrimidin-4-yl]-amine] | 170 | 15 |
| Cc1ccc(F)c2c1cc(C)n2CCNc1cc(-c2ccc(-c3noc(=O)[nH]3)cc2)ncn1 [compound 185, 3-(4-{6-[2-(7-Fluoro-2,4-dimethyl-indol-1-yl)-ethylamino]-pyrimidin-4-yl}-phenyl)-4H-[1,2,4]oxadiazol-5-one] | 302 | 30 |
| COc1cc(F)cc2c1cc(C)n2CCNc1cc(-c2ccc(-c3c[nH]cn3)cc2)ncn1 [compound 188, [2-(6-Fluoro-4-methoxy-2-methyl-indol-1-yl)-ethyl]-{6-[4-(1H-imidazol-4-yl)-phenyl]-pyrimidin-4-yl}-amine] | 43 | 17 |
| COc1ccc(F)c2c1cc(C)n2CCNc1cc(-c2ccc(-n3cccn3)cc2)ncn1 [compound 190] | 193 | 53 |
| COc1ccc(F)c2c1cc(C)n2CCNc1cc(-c2ccc(-c3ccn[nH]3)cc2)ncn1 [compound 193, [2-(7-Fluoro-4-methoxy-2-methyl-indol-1-yl)-ethyl]-{6-[4-(2H-pyrazol-3-yl)-phenyl]-pyrimidin-4-yl}-amine] | 39 | 4 |
| Cc1nc(-c2ccc(-c3cc(NCCn4c(C)cc5c(C)ccc(F)c54)ncn3)cc2)cs1 [compound 195] | 534 | 260 |
| Cc1cc2c(Cl)ccc(Cl)c2n1CCNc1cc(-c2ccc3[nH]c(C(=O)O)cc3c2)ncn1 [compound 198] | 299 | 96 |
| COc1cc(F)c(F)c2c1cc(C)n2CCNc1cc(-c2ccc3c(c2)CC(=O)N3)ncn1 [compound 199] | 166 | 102 |
| Cc1ccc(Cl)c2c1cc(C)n2CCNc1cc(-c2ccc3[nH]c(C(=O)O)cc3c2)ncn1 [compound 201] | 389 | 232 |
| COc1ccc(F)c2c1cc(C)n2CCNc1cc(-c2ccc(-c3cnco3)cc2)ncn1 [compound 202, [2-(7-Fluoro-4-methoxy-2-methyl-indol-1-yl)-ethyl]-[6-(4-oxazol-5-yl-phenyl)-pyrimidin-4-yl]-amine] | 105 | 16 |

More lines, in order of falling IC50 (PTRGER4 (EP4)), values ahead:

| IC50 (PTRGER4 (EP4)) [nM] | IC50 (PTGER2 (EP2)) [nM] | SMILES |
| --- | --- | --- |
| 894 | 5 | Cc1cc2c(F)ccc(F)c2n1CCNc1cc(-c2ccc(C(=O)O)c(C3CC3)c2)ncn1 [compound 173, 2-Cyclopropyl-4-{6-[2-(4,7-difluoro-2-methyl-indol-1-yl)-ethylamino]-pyrimidin-4-yl}-benzoic acid] |
| 864 | 173 | COc1ccc(F)c2c1cc(C)n2CCNc1cc(-c2cnc(N3CCOCC3)s2)ncn1 [compound 181] |
| 842 | 111 | CCNc1cc(-c2cc(NCCn3c(C)cc4cccc(C#N)c43)ncn2)ccc1C(=O)O [compound 163] |
| 751 | 32 | CCN1Cc2cc(-c3cc(NCCn4c(C)cc5c(OC)cccc54)ncn3)ccc2C1=O [compound 197, 2-Ethyl-5-{6-[2-(4-methoxy-2-methyl-indol-1-yl)-ethylamino]-pyrimidin-4-yl}-2,3-dihydro-isoindol-1-one] |
| 733 | 131 | Cc1ccc(F)c2c1cc(C)n2CCNc1cc(-c2cc(F)c(S(N)(=O)=O)c(F)c2)ncn1 [compound 166] |
| 637 | 49 | Cc1cc(F)cc2c1cc(C)n2CCNc1cc(-c2ccc3c(C(=O)O)n[nH]c3c2)ncn1 [compound 183, 6-{6-[2-(6-Fluoro-2,4-dimethyl-indol-1-yl)-ethylamino]-pyrimidin-4-yl}-1H-indazole-3-carboxylic acid] |
| 543 | 8 | Cc1cc2c(Cl)cccc2n1CCNc1cc(-c2ccc(C(=O)O)c(C3CC3)c2)ncn1 [compound 169] |
| 536 | 54 | COc1ccc(F)c2c1cc(C)n2CCNc1cc(-c2ccc(S(N)(=O)=O)c(Cl)c2)ncn1 [compound 172] |
| 520 | 113 | Cc1ccc(F)c2c1cc(C)n2CCNc1cc(-c2ccc3[nH]cnc3c2)ncn1 [compound 164] |
| 405 | 27 | Cc1ccc(F)c2c1cc(C)n2CCNc1cc(-c2ccc(C(=O)O)c(C3CC3)c2)ncn1 [compound 174, 2-Cyclopropyl-4-{6-[2-(7-fluoro-2,4-dimethyl-indol-1-yl)-ethylamino]-pyrimidin-4-yl}-benzoic acid] |
| 287 | 23 | COc1ccc(F)c2c1cc(C)n2CCNc1cc(-c2ccc(-c3ncc[nH]3)cc2)ncn1 [compound 192, [2-(7-Fluoro-4-methoxy-2-methyl-indol-1-yl)-ethyl]-{6-[4-(1H-imidazol-2-yl)-phenyl]-pyrimidin-4-yl}-amine] |
| 231 | 112 | COc1ccc(F)c2c1cc(C)n2CCNc1cc(-c2ccc(S(N)(=O)=O)c(C)c2)ncn1 [compound 171] |
| 198 | 20 | Cc1cc(F)c(F)c2c1cc(C)n2CCNc1cc(-c2ccc(-c3ncno3)cc2)ncn1 [compound 187, [2-(6,7-Difluoro-2,4-dimethyl-indol-1-yl)-ethyl]-[6-(4-[1,2,4]oxadiazol-5-yl-phenyl)-pyrimidin-4-yl]-amine] |
| 172 | 10 | COc1cccc2c1cc(C)n2CCNc1cc(-c2ccc(-c3noc(=O)[nH]3)cc2)ncn1 [compound 194, 3-(4-{6-[2-(4-Methoxy-2-methyl-indol-1-yl)-ethylamino]-pyrimidin-4-yl}-phenyl)-4H-[1,2,4]oxadiazol-5-one] |
| 168 | 18 | Cc1cc(-c2ccc(-c3cc(NCCn4c(C)cc5c(C)cc(F)cc54)ncn3)cc2)n[nH]1 [compound 178, [2-(6-Fluoro-2,4-dimethyl-indol-1-yl)-ethyl]-{6-[4-(5-methyl-1H-pyrazol-3-yl)-phenyl]-pyrimidin-4-yl}-amine] |
| 141 | 56 | Cc1cc(F)cc2c1cc(C)n2CCNc1cc(-c2ccc(-c3noc(=O)[nH]3)cc2)ncn1 [compound 182] |
| 124 | 7 | COc1ccc(F)c2c1cc(C)n2CCNc1cc(-c2ccc(-c3ncno3)cc2)ncn1 [compound 186, [2-(7-Fluoro-4-methoxy-2-methyl-indol-1-yl)-ethyl]-[6-(4-[1,2,4]oxadiazol-5-yl-phenyl)-pyrimidin-4-yl]-amine] |
| 111 | 37 | Cc1cc(F)cc2c1cc(C)n2CCNc1cc(-c2ccc(-c3cc(O)no3)cc2)ncn1 [compound 200, 5-(4-{6-[2-(6-Fluoro-2,4-dimethyl-indol-1-yl)-ethylamino]-pyrimidin-4-yl}-phenyl)-isoxazol-3-ol] |
| 106 | 19 | Cc1ccc(F)c2c1cc(C)n2CCNc1cc(-c2ccc(-c3cc(N)no3)cc2)ncn1 [compound 189, {6-[4-(3-Amino-isoxazol-5-yl)-phenyl]-pyrimidin-4-yl}-[2-(7-fluoro-2,4-dimethyl-indol-1-yl)-ethyl]-amine] |
| 71 | 36 | Cc1cc(F)c(F)c2c1cc(C)n2CCNc1cc(-c2ccc(-c3c[nH]cn3)cc2)ncn1 [compound 176, [2-(6,7-Difluoro-2,4-dimethyl-indol-1-yl)-ethyl]-{6-[4-(1H-imidazol-4-yl)-phenyl]-pyrimidin-4-yl}-amine] |
| 38 | 13 | COc1ccc(F)c2c1cc(C)n2CCNc1cc(-c2ccc(-c3c[nH]cn3)cc2)ncn1 [compound 191, [2-(7-Fluoro-4-methoxy-2-methyl-indol-1-yl)-ethyl]-{6-[4-(1H-imidazol-4-yl)-phenyl]-pyrimidin-4-yl}-amine] |
| 16 | 3 | COc1cccc2c1cc(C)n2CCNc1cc(-c2ccc(-c3cc(N)no3)cc2)ncn1 [compound 180, {6-[4-(3-Amino-isoxazol-5-yl)-phenyl]-pyrimidin-4-yl}-[2-(4-methoxy-2-methyl-indol-1-yl)-ethyl]-amine] |
